# Measured values reported in patent US11964973B2 (priority 2019, dated 2024).
# Tested on: Human venous whole blood (IFN-γ)
# Experiment: Human whole blood IFN-γ assay
# Assay type: cell-based
# Conditions: Homo sapiens, 24 h, human whole blood, anti-CD3 plus anti-CD28, 24 hours; read-out: INFg Whole Blood Normalized Agonist EC50
# Protocol: Assay 10: Human Whole Blood IFN-γ Assay
# Human venous whole blood (22.5 μL per well), obtained from healthy donors, was pre-treated with compounds for one hour at 37° C. in a humidified 95% air/5% CO2 incubator. The blood was stimulated with 2.5 μL anti-human CD3 and anti-CD28 mAb at a final concentration of 1 μg/mL each for 24 hours at 37° C. IFN-γ in the supernatants was measured using AlphLISA kit (Cat #AL217).
row,Compound,EC50
1,"C[C@@H]1CN(c2cc(=O)n(C)c3ccc(C#N)nc23)CC[C@H]1Oc1ccc(C2CC2)cc1 (racemic) [Example 111, 8-((3R,4R)-4-(4-cyclopropylphenoxy)-3-methylpiperidin-1-yl)-5-methyl-6-oxo-5,6-dihydro-1,5-naphthyridine-2-carbonitrile]",3.3 µM
2,"C[C@@H]1CN(c2cc(=O)n(C)c3ccc(C#N)nc23)CC[C@H]1Oc1c(F)cccc1F [Example 125, 8-((3R,4R)-4-(2,6-difluorophenoxy)-3-methylpiperidin-1-yl)-5-methyl-6-oxo-5,6-dihydro-1,5-naphthyridine-2-carbonitrile]",20 µM
3,"C[C@@H]1CN(c2cc(=O)n(C)c3ccc(C#N)nc23)CC[C@H]1Oc1ccc(F)cc1F (racemic) [Example 113, 8-((3R,4R)-4-(2,4-difluorophenoxy)-3-methylpiperidin-1-yl)-5-methyl-6-oxo-5,6-dihydro-1,5-naphthyridine-2-carbonitrile]",4.1 µM
4,"CC[C@@H]1CN(c2cc(=O)n(C)c3ccc(C#N)nc23)CC[C@H]1Oc1ccc(C(C)C)cc1 (racemic) [Example 143, 8-((3R,4R)-3-ethyl-4-(4-isopropylphenoxy)piperidin-1-yl)-5-methyl-6-oxo-5,6-dihydro-1,5-naphthyridine-2-carbonitrile]",2.2 µM
5,"C[C@@H]1CN(c2cc(=O)n(C)c3ccc(C#N)nc23)CC[C@H]1Oc1ccc(OC(F)(F)F)cc1 (racemic) [Example 79, (+/−) 6-cyano-1-methyl-4-(trans-3-methyl-4-(4-(trifluoromethoxy)phenoxy)piperidin-1-yl)-1,5-naphthyridin-2(1H)-one]",2.2 µM
6,"CC[C@@H]1CN(c2cc(=O)n(C)c3ccc(C#N)nc23)CC[C@H]1Oc1cccc(C2CC2)c1 (racemic) [Example 155, 8-((3R,4R)-4-(3-cyclopropylphenoxy)-3-ethylpiperidin-1-yl)-5-methyl-6-oxo-5,6-dihydro-1,5-naphthyridine-2-carbonitrile]",20 µM
7,"CCc1ccc(O[C@@H]2CCN(c3cc(=O)n(C)c4ccc(C#N)nc34)C[C@H]2C)cc1 (racemic) [Example 110, 8-((3R,4R)-4-(4-ethylphenoxy)-3-methylpiperidin-1-yl)-5-methyl-6-oxo-5,6-dihydro-1,5-naphthyridine-2-carbonitrile]",3 µM
8,"C[C@@H]1CN(c2cc(=O)n(C)c3ccc(C#N)nc23)CC[C@H]1Oc1ccc(OC(F)(F)F)cc1 (single isomer, unassigned) [Example 80, 6-cyano-1-methyl-4-(trans-3-methyl-4-(4-(trifluoromethoxy)phenoxy)piperidin-1-yl)-1,5-naphthyridin-2(1H)-one (rel)]",2.4 µM
9,"C[C@@H]1CN(c2cc(=O)n(C)c3ccc(C#N)nc23)CC[C@H]1Oc1ccc(F)cc1 (single isomer, unassigned) [Example 129]",20 µM
10,"C[C@@H]1CN(c2cc(=O)n(C)c3ccc(C#N)nc23)CC[C@H]1Oc1c(F)cccc1C(F)(F)F (racemic) [Example 124, 8-((3R,4R)-4-(2-fluoro-6-(trifluoromethyl)phenoxy)-3-methylpiperidin-1-yl)-5-methyl-6-oxo-5,6-dihydro-1,5-naphthyridine-2-carbonitrile]",20 µM
11,"C[C@@H]1CN(c2cc(=O)n(C)c3ccc(C#N)nc23)CC[C@H]1Oc1c(F)cccc1F (single isomer, unassigned) [Example 126]",20 µM
12,"C[C@@H]1CN(c2cc(=O)n(C)c3ccc(C#N)nc23)CC[C@H]1Oc1ccc(C(C)(C)C)cc1 [Example 88, 8-((3R,4R)-4-(4-(tert-butyl)phenoxy)-3-methylpiperidin-1-yl)-5-methyl-6-oxo-5,6-dihydro-1,5-naphthyridine-2-carbonitrile]",0.88 µM

# Same assay, conditions: Homo sapiens, human whole blood IFN-γ; read-out: INFg Whole Blood
row,Compound,EC50
1,"CC(C)c1ccc(O[C@H]2CCN(c3cc(=O)n(C)c4ccc(C#N)nc34)C[C@H]2C)nc1 [Example 205, 8-((3R,4S)-4-((5-isopropylpyridin-2-yl)oxy)-3-methylpiperidin-1-yl)-5-methyl-6-oxo-5,6-dihydro-1,5-naphthyridine-2-carbonitrile]",0.37 µM
2,"CC(C)Oc1ccc(O[C@@H]2CCN(c3cc(=O)n(C)c4ccc(C#N)nc34)C[C@H]2C)nc1 (mixture of isomers) [Example 199, 8-((3R,4R)-4-((5-isopropoxypyridin-2-yl)oxy)-3-methylpiperidin-1-yl)-5-methyl-6-oxo-5,6-dihydro-1,5-naphthyridine-2-carbonitrile]",2.1 µM
3,"COc1ccnc(O[C@H]2CCN(c3cc(=O)n(C)c4ccc(C#N)nc34)C[C@H]2C)n1 [Example 218, 8-((3R,4S)-4-((4-methoxypyrimidin-2-yl)oxy)-3-methylpiperidin-1-yl)-5-methyl-6-oxo-5,6-dihydro-1,5-naphthyridine-2-carbonitrile]",20 µM
4,"C[C@@H]1CN(c2cc(=O)n(C)c3ccc(C#N)nc23)CC[C@@H]1Oc1ccc(C(F)(F)F)cn1 (single isomer, unassigned) [Example 226]",2.4 µM
5,"C[C@@H]1CN(c2cc(=O)n(C)c3ccc(C#N)nc23)CC[C@@H]1Oc1ccc(C(F)(F)F)cc1 (racemic) [Example 186, (+/−) 5-methyl-8-(cis-3-methyl-4-(4-(trifluoromethyl)phenoxy)piperidin-1-yl)-6-oxo-5,6-dihydro-1,5-naphthyridine-2-carbonitrile]",1.6 µM
6,"C[C@@H]1CN(c2c(C#N)c(=O)n(C)c3ccc(C#N)nc23)CC[C@@H]1Oc1ccc(C(F)(F)F)cc1 [Example 189, 5-methyl-8-((3R,4S)-3-methyl-4-(4-(trifluoromethyl)phenoxy)piperidin-1-yl)-6-oxo-5,6-dihydro-1,5-naphthyridine-2,7-dicarbonitrile]",20 µM
7,"CC(C)c1cccc(O[C@H]2CCN(c3cc(=O)n(C)c4ccc(C#N)nc34)C[C@H]2C)n1 [Example 214, 8-((3R,4S)-4-((6-isopropylpyridin-2-yl)oxy)-3-methylpiperidin-1-yl)-5-methyl-6-oxo-5,6-dihydro-1,5-naphthyridine-2-carbonitrile]",5 µM
8,"CCCc1cc(O[C@@H]2CCN(c3cc(=O)n(C)c4ccc(C#N)nc34)C[C@H]2CC)ccc1F [Example 195, 8-((3R,4R)-3-ethyl-4-(4-fluoro-3-propylphenoxy)piperidin-1-yl)-5-methyl-6-oxo-5,6-dihydro-1,5-naphthyridine-2-carbonitrile]",0.33 µM

# Same assay, conditions: human whole blood IFN-γ; read-out: INFg Whole Blood
row,Compound,EC50
1,CO[C@@H]1CN(c2nc(=O)n(C)c3ccc(C#N)nc23)CC[C@H]1Oc1cccc(C(F)(F)F)c1 (racemic) [Example 276],1 µM
2,"CO[C@@H]1CN(c2cc(=O)n(C)c3ccc(C#N)nc23)CC[C@H]1Oc1cccc(C(F)(F)F)c1 (racemic) [Example 262, (±)-trans-8-(3-methoxy-4-(3-(trifluoromethyl)phenoxy)piperidin-1-yl)-5-methyl-6-oxo-5,6-dihydro-1,5-naphthyridine-2-carbonitrile]",12 µM
3,"CC(C)c1ccnc(O[C@H]2CCN(c3cc(=O)n(C)c4ccc(C#N)nc34)C[C@H]2C)c1 (single isomer, unassigned) [Example 213]",4.9 µM
4,"C[C@@H]1CN(c2cc(=O)n(C)c3ccc(C#N)nc23)CC[C@@H]1Oc1ccc(C(F)(F)F)cc1 (single isomer, unassigned) [Example 188, 5-methyl-8-(cis-3-methyl-4-(4-(trifluoromethyl)phenoxy)piperidin-1-yl)-6-oxo-5,6-dihydro-1,5-naphthyridine-2-carbonitrile (rel)]",6.4 µM
5,"CC(C)Oc1ccc(OC2CCN(c3cc(=O)n(C)c4ccc(C#N)nc34)CC2(C)C)nc1 (single isomer, unassigned) [Example 233, 8-(4-((5-isopropoxypyridin-2-yl)oxy)-3,3-dimethylpiperidin-1-yl)-5-methyl-6-oxo-5,6-dihydro-1,5-naphthyridine-2-carbonitrile (rel)]",3.3 µM
6,"CC(C)Oc1ccc(OC2CCN(c3cc(=O)n(C)c4ccc(C#N)nc34)CC2(C)C)nc1 (single isomer, unassigned) [Example 234, 8-(4-((5-isopropoxypyridin-2-yl)oxy)-3,3-dimethylpiperidin-1-yl)-5-methyl-6-oxo-5,6-dihydro-1,5-naphthyridine-2-carbonitrile (rel)]",9.3 µM
7,"CC(C)c1ccnc(O[C@H]2CCN(c3cc(=O)n(C)c4ccc(C#N)nc34)C[C@H]2C)c1 (single isomer, unassigned) [Example 212]",1.9 µM
8,"CO[C@H]1CN(c2cc(=O)n(C)c3ccc(C#N)nc23)CC[C@@H]1Oc1ccc(OC(C)C)cn1 (racemic) [Example 270, (±)-trans-8-(4-((5-isopropoxypyridin-2-yl)oxy)-3-methoxypiperidin-1-yl)-5-methyl-6-oxo-5,6-dihydro-1,5-naphthyridine-2-carbonitrile]",5.4 µM

# Same assay, conditions: human whole blood, anti-CD3 plus anti-CD28, 24 hours; read-out: INFg Whole Blood Normalized Agonist EC50
row,Compound,EC50
1,"C[C@@H]1CN(c2cc(=O)n(C)c3ccc(C#N)nc23)CC[C@H]1Oc1ccc(C(F)(F)F)cc1 (single isomer, unassigned) [Example 99]",2.9 µM
2,"C[C@@H]1CN(c2cc(=O)n(C)c3ccc(C#N)nc23)CC[C@H]1Oc1ccc(OC(F)(F)F)cc1 (single isomer, unassigned) [Example 81, 6-cyano-1-methyl-4-(trans-3-methyl-4-(4-(trifluoromethoxy)phenoxy)piperidin-1-yl)-1,5-naphthyridin-2(1H)-one (rel)]",2 µM
3,"C[C@@H]1CN(c2cc(=O)n(C)c3ccc(C#N)nc23)CC[C@H]1Oc1c(F)cccc1F (single isomer, unassigned) [Example 127]",20 µM
4,"CC[C@@H]1CN(c2cc(=O)n(C)c3ccc(C#N)nc23)CC[C@H]1Oc1ccc(C(C)(C)C)cc1 (single isomer, unassigned) [Example 153]",1.7 µM
5,"C[C@@H]1CN(c2cc(=O)n(C)c3ccc(C#N)nc23)CC[C@H]1Oc1ccc(F)c(F)c1 (single isomer, unassigned) [Example 105]",2 µM
